Holding throughout (test): inhibition of tumour cell growth, NCI panel, 48 h
Assay [1] concerns M14 melanoma.
Assay [2] deals with PC-3 prostate.
Assay [3] has as its system SF-295 CNS.
In assay [4] the test system is SR leukemia.
In assay [5] the test system is LOX IMVI melanoma.
In assay [6] the test system is UACC-257 melanoma.
The test system of assay [7] is SK-MEL-28 melanoma.
Assay [8] has as its system HL-60(TB) leukemia.
Assay [9] relates to T-47D breast.
Assay [10] has as its system SNB-78 CNS.

“And” between values parts separate entries of the source, which are not always exact repeats. Equal entries are not always repeated.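 Results reflect a 48-hour exposure of cells in 96-well plates to compound at five concentrations. GI50: concentration for 50% inhibition of growth. At the TGI there is no net growth.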 Where only a bound is given, the exact number is not on record here.

For `CC(=O)c1c(-c2cccc3ccccc23)c(C#N)c(=S)n(C2OC(CO)C(O)C(O)C2O)c1C` (stereo not given), the GI50 was > 100 µM and 42.6 µM in assay [1]; > 100 µM and 33.6 µM in [4]; > 100 µM and 42.1 µM in [8]; > 100 µM and 27.3 µM in [9]. For the same compound, the TGI in assay [1], in assay [2], in [3], in assay [4], in assay [5] and in assay [6] was greater than 100 µM in each case. For the same compound, the TGI in assay [7], in [8] and in assay [9] was greater than 100 µM in each case.
With `Cc1ccc(C(=N)c2ccccc2Cc2cccc3ccccc23)c2ccccc12`, the TGI in [1], in assay [2], in assay [3], in assay [4], in assay [5] and in assay [6] was greater than 100 µM each time. In addition, the TGI in assay [7], in assay [8] and in [9] was greater than 100 µM throughout.
On to `O=c1[nH]c2nc3ccccc3c(=O)n2/c1=C/c1ccc(Cl)cc1`, for which the TGI in assay [1], in assay [2], in assay [3], in assay [4], in assay [5] and in assay [6] was greater than 100 µM in each case. For the same compound, the TGI in assay [7], in [8] and in assay [9] was greater than 100 µM in each case.
In the case of `CCCCCOc1ccc(C=Nc2ccc(CCc3ccc(N=Cc4ccc(OCCCCC)cc4)cc3)cc2)cc1`, the TGI in [3], in [10], in [5], in assay [6], in assay [7] and in assay [8] was greater than 100 µM throughout.
With `COC1CC(N)(c2ccccc2)C(O)C(C)O1` (stereo not given), the TGI in assay [1], in assay [2], in [3], in [4], in assay [5] and in assay [6] was greater than 100 µM each time. For the same compound, the TGI in [7], in [8] and in assay [9] was greater than 100 µM each time.
Take `c1ccc(-c2csc3c4ccccc4c4ccccc4[n+]23)cc1`: the TGI is 22 µM in assay [1]; 16 µM in assay [3]; greater than 100 µM in assay [4]; 11.1 µM in [10]; 16.9 µM in assay [5]; 3.27 µM in [6]. Further, the results for the TGI in assay [7] and in assay [8] were 7.96 µM and greater than 35 µM, respectively.
Take `O=C(O)CCc1nc2c(n1-c1ccccc1)C(=O)c1ccccc1C2=O`: the TGI in [1], in [2], in assay [3], in assay [4], in assay [5] and in assay [6] was greater than 100 µM in each case. The TGI in assay [7], in assay [8] and in assay [9] was greater than 100 µM each time.
Regarding `COc1cccc(N2C(=O)CSC2c2cccc(Oc3ccccc3)c2)c1` (stereo not given), the TGI in [1] is 51 µM; in assay [2] it was greater than 100 µM; in assay [3], greater than 100 µM; in assay [4] it was 17.6 µM; in assay [5], 27.2 µM; in assay [6] it was 12.3 µM. The results for the TGI in assay [7], in assay [8] and in assay [9] were greater than 100 µM, 66.5 µM and greater than 100 µM, respectively.
In the case of `COc1cc(/C=C2\C(=O)N(c3cccc([N+](=O)[O-])c3)C(c3ccccc3)S2(=O)=O)cc(OC)c1OC` (stereo not given), the TGI in assay [1], in assay [2], in [3], in [4], in assay [5] and in [6] was greater than 100 µM each time. Besides, the TGI in assay [7], in assay [8] and in assay [9] was greater than 100 µM throughout.
Turning to `Cc1ccc(C)c(NC(=O)C(=O)C(C(=O)c2ccc3ccccc3c2)C2OC(=O)c3ccccc32)c1` (stereo not given), the TGI was 28.8 µM in [1]; 66.2 µM in assay [3]; greater than 100 µM in assay [4]; greater than 100 µM in [10]; 35.1 µM in [5]; 36.5 µM in assay [6]. For the same compound, the results for the TGI in assay [7] and in assay [8] were 34.4 µM and 52 µM, respectively.
For `O=[N+]([O-])c1ccccc1OCCOc1ccccc1[N+](=O)[O-]`, the TGI in assay [1], in assay [2], in assay [3], in assay [4], in assay [5] and in assay [6] was greater than 100 µM throughout. Further, the TGI in [7], in assay [8] and in [9] was greater than 100 µM throughout.
As to `CC(C)/C(Cl)=N/OC(=O)Nc1ccc(Br)cc1`, the TGI was found to be 8.33 µM in assay [1]; 26.7 µM in [2]; 28.8 µM in [3]; 4.5 µM in assay [4]; 2.85 µM in [5]; 28.7 µM in [6]. Besides, the TGI in assay [7] was 14.1 µM; in [8] it was 7.62 µM; in assay [9] it was 9.95 µM.
`O=C(Nc1ccccc1F)c1cc2ccc(O)cc2oc1=Nc1cccc(F)c1`: the TGI was 38.6 µM in assay [1]; 48 µM in assay [2]; 18.5 µM in [3]; 49.2 µM in assay [4]; 22.9 µM in assay [5]; 65.6 µM in assay [6]. Moreover, the TGI in [7] is 38.7 µM; in assay [8], 27 µM; in assay [9], 39.3 µM.
Regarding `c1ncn(C23C4C5C6C4C2C6C53)n1` (stereo not given), the TGI in assay [2], in [3], in [4], in [5], in assay [6] and in [7] was greater than 100 µM each time. The TGI in assay [8] and in assay [9] was greater than 100 µM each time.
Consider `COc1cc(C2c3c(ccc4ccccc34)C(=O)C3CCC(=O)N32)cc(OC)c1OC` (stereo not given), for which the TGI in [1], in assay [2], in assay [3], in assay [4], in assay [6] and in assay [7] was greater than 50 µM throughout. Besides, the TGI in assay [8] and in assay [9] was greater than 50 µM throughout.
For the compound `CC1CC[C@@]2(OC1)OC1C[C@H]3[C@@H]4CC=C5CC(OC6OC(CO)C(OC7OC(CO)C(O)C(OC8OCC(O)C(O)C8O)C7OC7OC(CO)C(OC8OC(C)C(OC9OC(C)C(O)C(O)C9O)C(O)C8O)C(O)C7O)C(O)C6O)CCC5(C)[C@H]4CCC3(C)C1[C@@H]2C` (stereo not given in full), the TGI in assay [1] is 10.1 µM; in [2], 11.7 µM; in [3] it was 13.8 µM; in assay [4], 50 µM; in assay [5], 17.3 µM; in [6] it was 18.1 µM. The TGI came out at 20.1 µM in assay [7], 17.2 µM in assay [8] and 20.2 µM in assay [9].
For `Cc1cc([NH-])c([NH-])cc1C.[Cl][Pt+2][Cl]`, the GI50 in assay [3] was 3.36 µM; in [10] it was 26.5 µM; in assay [5], 7.9 µM; in [6], 22.4 µM; in assay [7], 16.7 µM; in assay [8], 17 µM. For the same compound, the TGI in assay [3] was 16.1 µM; in [10] it was greater than 96 µM; in assay [5] it was 17.6 µM; in [6], greater than 67.2 µM; in assay [7], 39.5 µM; in [8] it was 75.4 µM.
For `OC1[C@@H]2[C@@H](O)CCCN2C[C@@H](O)[C@H]1O` (stereo not given in full), the TGI in assay [1], in [2], in assay [3], in assay [4], in assay [5] and in assay [6] was greater than 100 µM each time. Besides, the TGI in assay [7], in [8] and in assay [9] was greater than 100 µM each time.
As for `C1=C(c2ccccc2)SC(N2CCCCC2)S1` (stereo not given), the TGI in [1], in [3], in assay [4], in assay [10], in assay [5] and in assay [6] was greater than 100 µM in each case. The compound further registered a TGI in assay [8] greater than 100 µM.
As for `Cc1ccc(Nc2nc3[nH]ccc3c(=O)[nH]2)cc1`, the TGI in assay [1], in [2], in assay [3], in assay [4], in assay [5] and in assay [6] was greater than 100 µM each time. For the same compound, the TGI in assay [8] and in assay [9] was greater than 100 µM in each case.
For `C=CCC1(C#N)C(=S)NC2=C(C(=O)CC(C)(C)C2)C1c1ccccc1` (stereo not given), the TGI in assay [1], in [2], in [4], in [5], in assay [7] and in [8] was greater than 100 µM throughout. Moreover, the TGI in assay [9] is greater than 100 µM.
On to `CC(N=NNc1ccc(-c2nc3ccccc3[nH]2)cc1)C(=O)O` (stereo not given), for which the TGI in assay [1] was greater than 100 µM; in assay [2] it was greater than 100 µM; in assay [3] it was 72.1 µM; in assay [4], greater than 100 µM; in [5] it was greater than 100 µM; in [6], greater than 100 µM. Also, the TGI in assay [7], in assay [8] and in assay [9] was greater than 100 µM each time.
With `CCOC(=O)c1c(C)n(Cc2ccc(Cl)cc2Cl)c2c1cc(O)c1[nH]c3c(c12)CCCC3`, the TGI in assay [1] was 86.3 µM; in assay [2], 40.9 µM; in assay [3], 97.2 µM; in assay [4], 0.379 µM; in assay [5], greater than 100 µM; in assay [6] it was 43.2 µM. In addition, the TGI in assay [7] is 45 µM; in [8], 2.79 µM; in assay [9], greater than 100 µM.
`O=C1c2cccc([N+](=O)[O-])c2C(=O)N1Cc1ccccc1`: the TGI in assay [1], in assay [2], in assay [3], in assay [4], in [5] and in assay [6] was greater than 100 µM throughout. In addition, the TGI in assay [7], in assay [8] and in assay [9] was greater than 100 µM throughout.
With `N=C1C(=N)c2ccccc2-c2ccccc21.[Cl-].[Ru+2].c1ccc(-c2ccccn2)nc1.c1ccc(-c2ccccn2)nc1`, the TGI in assay [1], in [3], in assay [4], in assay [10], in [5] and in assay [6] was greater than 100 µM in each case. The TGI in [7] and in [8] was greater than 100 µM each time. Also, the GI50 in [10] is greater than 100 µM.
As to `O=C(O)CN(CC(=O)O)C1CCCCC1N1CC(=O)OC(=O)C1` (stereo not given), the TGI in [1], in assay [2], in assay [3], in assay [4], in [5] and in assay [6] was greater than 100 µM throughout. Further, the TGI in assay [7], in [8] and in assay [9] was greater than 100 µM each time.
For `CC(C)(C)c1ccc(OCCOc2ccc(C(C)(C)C)cc2N)c(N)c1`, the TGI in assay [1], in [2], in assay [3], in assay [4], in assay [5] and in assay [6] was greater than 100 µM each time. Besides, the TGI in [7], in [8] and in assay [9] was greater than 100 µM each time.
Regarding `Cc1ccc2nc(SCC(=O)N=Nc3c(O)[nH]c4ccccc34)n(-c3ccccc3)c(=O)c2c1`, the TGI in [1] worked out at 29.8 µM; in assay [2], 36.1 µM; in [3], 29.5 µM; in [4] it was 36.7 µM; in [5] it was 29.8 µM; in assay [6], 55.7 µM. For the same compound, the results for the TGI in [7], in assay [8] and in assay [9] were 31.2 µM, 62.2 µM and 34 µM, respectively.
Regarding `CC(=O)O[C@H]1CC(C)(C)C(=C=C/C(C)=C/C=C/C=C/C=C(C)/C=C2C=C(/C=C/[C@@]34O[C@]3(C)C[C@@H](O)CC4(C)C)C(=O)O/2)[C@](C)(O)C1`, the TGI was 25.6 µM in assay [1]; 15.9 µM in assay [2]; 34.3 µM in assay [3]; 74.8 µM in assay [4]; 51.5 µM in [6]; greater than 100 µM in assay [7]. Moreover, the figures for the TGI in assay [8] and in assay [9] were 4.9 µM and greater than 100 µM, respectively.
